In patent US20120053053A1, “PYRIMIDINE DERIVATIVES AND THEIR USE AS HERBICIDES” (SYNGENTA CROP PROTECTION, LLC, priority 2009, published 2012):

What was measured:
Format in all cases: in vivo
Setaria faberi (SETFA) [1] = test: Post-emergence biological efficacy (percentage damage); settings: Setaria faberi, 312 h, evaluated after 13 days, 100=total damage, 0=no damage; for pest or weed control at 1000 g/ha: dose 1,000 g/ha
Procedure, shortened: (§1)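 Percentage damage (0 no damage to 100 total) was assessed 13 days after spraying plants raised for 8 days in pots. Test compound was applied as an aqueous acetone/water (50:50) spray containing 0.5% Tween 20 to give 250 or 1000 g/ha.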

Solanum nigrum (SOLNI) [2] = test: as above; settings: Solanum nigrum, 312 h, evaluated after 13 days, 100=total damage, 0=no damage; for pest or weed control at 1000 g/ha: dose 1,000 g/ha
Procedure, shortened: as §1

[3] = tested on: Echinochloa crus-galli (ECHCG); test: as above; settings: Echinochloa crus-galli, 312 h, evaluated after 13 days, 100=total damage, 0=no damage; for pest or weed control at 1000 g/ha: dose 1,000 g/ha
Procedure, shortened: as §1

[4] = tested on: Ipomea hederaceae (IPOHE); test: as above; settings: Ipomoea hederacea, 312 h, evaluated after 13 days, 100=total damage, 0=no damage; for pest or weed control at 1000 g/ha: dose 1,000 g/ha
Procedure, shortened: as §1

[5] = tested on: Amaranthus retoflexus (AMARE); test: as above; settings: Amaranthus retroflexus, 312 h, evaluated after 13 days, 100=total damage, 0=no damage; for pest or weed control at 1000 g/ha: dose 1,000 g/ha
Procedure, shortened: as §1

[6] = tested on: Alopecurus myosuroides (ALOMY); test: as above; settings: Alopecurus myosuroides, 312 h, evaluated after 13 days, 100=total damage, 0=no damage; for pest or weed control at 1000 g/ha: dose 1,000 g/ha
Procedure, shortened: as §1

Setaria faberi (SETFA) [7] = test: Pre-emergence biological efficacy (percentage damage); settings: Setaria faberi, 312 h, evaluated after 13 days, 100=total damage, 0=no damage; for pest or weed control at 1000 g/ha: dose 1,000 g/ha
Procedure, shortened: (§2)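 Pre-emergence spray, 250 or 1000 g/ha, acetone/water 50:50 + 0.5% Tween 20, applied 1 d after sowing in standard soil. Glasshouse 24/16 °C, 14 h light, 65% RH, watered twice daily. Scored day 13, 0–100% damage.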

Solanum nigrum (SOLNI) [8] = test: as above; settings: Solanum nigrum, 312 h, evaluated after 13 days, 100=total damage, 0=no damage; for pest or weed control at 1000 g/ha: dose 1,000 g/ha
Procedure, shortened: as §2

[9] = tested on: Echinochloa crus-galli (ECHCG); test: as above; settings: Echinochloa crus-galli, 312 h, evaluated after 13 days, 100=total damage, 0=no damage; for pest or weed control at 1000 g/ha: dose 1,000 g/ha
Procedure, shortened: as §2

[10] = tested on: Ipomea hederaceae (IPOHE); test: as above; settings: Ipomoea hederacea, 312 h, evaluated after 13 days, 100=total damage, 0=no damage; for pest or weed control at 1000 g/ha: dose 1,000 g/ha
Procedure, shortened: as §2

[11] = tested on: Amaranthus retoflexus (AMARE); test: as above; settings: Amaranthus retroflexus, 312 h, evaluated after 13 days, 100=total damage, 0=no damage; for pest or weed control at 1000 g/ha: dose 1,000 g/ha
Procedure, shortened: as §2

[12] = tested on: Alopecurus myosuroides (ALOMY); test: as above; settings: Alopecurus myosuroides, 312 h, evaluated after 13 days, 100=total damage, 0=no damage; for pest or weed control at 1000 g/ha: dose 1,000 g/ha
Procedure, shortened: as §2

Compound | pest or weed control at 1000 g/ha (Setaria faberi (SETFA) [1]) [%] | pest or weed control at 1000 g/ha (Solanum nigrum (SOLNI) [2]) [%] | pest or weed control at 1000 g/ha [3] [%] | pest or weed control at 1000 g/ha [4] [%] | pest or weed control at 1000 g/ha [5] [%] | pest or weed control at 1000 g/ha [6] [%] | pest or weed control at 1000 g/ha (Setaria faberi (SETFA) [7]) [%] | pest or weed control at 1000 g/ha (Solanum nigrum (SOLNI) [8]) [%] | pest or weed control at 1000 g/ha [9] [%] | pest or weed control at 1000 g/ha [10] [%] | pest or weed control at 1000 g/ha [11] [%] | pest or weed control at 1000 g/ha [12] [%] | also measured
C=Cc1c(N)nc(-c2cc(F)cc(Cl)c2)nc1C(=O)OC [Compound 61-61, 4-Amino-2-(3-chloro-5-fluorophenyl)-5-ethenyl-6-methoxycarbonyl-pyrimidine] | 0 | 20 | 0 | 0 | 10 | 0 | 0 | 30 | 0 | 0 | 0 | 0 | –
C=Cc1c(N)nc(SC)nc1C(=O)OC [Compound 62-61, 4-amino-5-ethenyl-6-methoxycarbonyl-2-methylthiopyrimidine] | 10 | 90 | 0 | 90 | 100 | 0 | 0 | 100 | 0 | 100 | 100 | 0 | –
C=Cc1c(N)nc(-c2cc(F)c(F)c(F)c2)nc1C(=O)OC [Compound 63-61, 4-Amino-5-ethenyl-6-methoxycarbonyl-2-(3,4,5-trifluorophenyl)-pyrimidine] | 0 | 20 | 0 | 20 | 0 | 0 | 0 | 0 | 0 | 0 | 0 | 0 | –
C=Cc1ccc(-c2nc(N)c(C=C)c(C(=O)OC)n2)c(F)c1N(C)C [Compound 64-61, 4-amino-2-(3-dimethylamino-4-ethenyl-2-fluorophenyl)-5-ethenyl-6-methoxycarbonylpyrimidine] | 30 | 60 | 10 | 10 | 100 | 10 | 10 | 10 | 10 | 0 | 30 | 10 | –
COC(=O)c1nc(-c2ccc(C(C)=O)c(OC)c2F)nc(N)c1C(C)=O [Compound 65-53, 4-Amino-2-(2-fluoro-3-methoxy-4-methylcarbonyl-phenyl)-6-methoxycarbonyl-5-methylcarbonyl-pyrimidine] | 10 | 70 | 10 | 50 | 20 | 0 | 0 | 0 | 0 | 20 | 0 | 0 | –
C=C(OCC)c1ccc(-c2nc(N)c(C(C)=O)c(C(=O)OC)n2)c(F)c1OC [Compound 66-53, 4-amino-2-(4-[1-ethoxyethenyl]-2-fluoro-3-methoxy-phenyl)-6-methoxycarbonyl-5-methylcarbonyl-pyrimidine] | 10 | 60 | 0 | 30 | 20 | 0 | 0 | 20 | 0 | 30 | 10 | 0 | –
C=Cc1c(N)nc(-c2ccc(F)c(F)c2)nc1C(=O)OC [Compound 67-61, 4-Amino-2-(3,4-difluorophenyl)-5-ethenyl-6-methoxycarbonyl-pyrimidine] | 10 | 90 | 40 | 60 | 100 | 20 | 30 | 70 | 30 | 50 | 100 | 30 | –
C=Cc1c(N)nc(-c2ccc(C#N)cc2)nc1C(=O)OC [Compound 68-61, 4-Amino-2-(4-cyanophenyl)-5-ethenyl-6-methoxycarbonyl-pyrimidine] | – | – | – | – | – | – | – | – | – | – | – | – | pest or weed control at 250 g/ha (Setaria faberi (SETFA) [1]; dose 250 g/ha): 0%; pest or weed control at 250 g/ha (Solanum nigrum (SOLNI) [2]; dose 250 g/ha): 80%; pest or weed control at 250 g/ha ([3]; dose 250 g/ha): 0%; pest or weed control at 250 g/ha ([4]; dose 250 g/ha): 40%; pest or weed control at 250 g/ha ([5]; dose 250 g/ha): 30%; pest or weed control at 250 g/ha ([6]; dose 250 g/ha): 0%; pest or weed control at 250 g/ha (Setaria faberi (SETFA) [7]; dose 250 g/ha): 0%; pest or weed control at 250 g/ha (Solanum nigrum (SOLNI) [8]; dose 250 g/ha): 30%; pest or weed control at 250 g/ha ([9]; dose 250 g/ha): 0%; pest or weed control at 250 g/ha ([10]; dose 250 g/ha): 0%; pest or weed control at 250 g/ha ([11]; dose 250 g/ha): 10%; pest or weed control at 250 g/ha ([12]; dose 250 g/ha): 0%
C=Cc1c(N)nc(-c2ccc(C(=O)OC)cc2)nc1C(=O)OC [Compound 69-61, 4-Amino-5-ethenyl-6-methoxycarbonyl-2-(4-methoxycarbonyl-phenyl)-pyrimidine] | 0 | 20 | 0 | 30 | 0 | 0 | 0 | 0 | 0 | 0 | 0 | 0 | –
C=Cc1c(N)nc(-c2ccc3c(c2)OCO3)nc1C(=O)OC [Compound 70-61, 4-Amino-5-ethenyl-6-methoxycarbonyl-2-(3,4-methylenedioxy-phenyl)-pyrimidine] | 40 | 90 | 100 | 80 | 100 | 100 | 70 | 100 | 90 | 80 | 100 | 80 | –
C=Cc1c(N)nc(-c2ccc3c(c2)OCCO3)nc1C(=O)OC [Compound 71-61, 4-Amino-5-ethenyl-2-(3,4-ethylenedioxy-phenyl)-6-methoxycarbonyl-pyrimidine] | 0 | 60 | 30 | 40 | 20 | 0 | 0 | 40 | 20 | 0 | 0 | 10 | –
